Test system: patient diagnosed as having depression
Assay: Case of improvement of depressive symptoms by aspiration (or inhalation) of hydrogen
Format: in vivo, human
Conditions: for symptoms (depressive symptoms, anthropophobia, insomnia) under prescribed medication: patient, Abilify intramuscular injections, Lexotan Tablet 2 and Brotizolam Tablet taken together, before hydrogen
Source text: A patient diagnosed as having depression, who had suffered from anthropophobia and insomnia along with depressive symptoms, received intramuscular injections of Abilify™ (Otsuka Pharmaceutical Co., Ltd. (Japan); with indication of depressive disorder) prescribed by a doctor at the department of psychiatry, and took Lexotan™ Tablet 2 (Chugai Pharmaceutical Co., Ltd. (Japan); with an indications of anxiety and tension associated with depressive disorder) and Brotizolam Tablet (Choseido Pharmaceutical Co., Ltd.; with indication of insomnia); however, the symptoms were not improved. Thus, hydrogen gas (70 to 140 ml/min) was aspirated for 1 hour once or twice a day using a hydrogen aspirator (MHG-2000α™ (MiZ Company Limited)) over about half a year while the medication was continued. As a result, the number of days on which it was possible to naturally fall asleep increased (2 or 3 days a week), and the liveliness of voice was enhanced. About half a year after the start of aspiration (or inhalation) of hydrogen gas, administration of the Brotizolam Tablet was discontinued, and the amount of hydrogen gas aspirated was increased (280 ml/min for 6 hours per day). The aspiration of hydrogen gas was continued over about 3 months. As a result, the depressive symptoms were improved, and therefore the use of Abilify and Lexotan Tablet 2 was discontinued on the basis of the doctor's judgement. […] After the use of Abilify and Lexotan Tablet 2, aspiration of hydrogen gas (280 ml/min for 6 hours per day) was continued.

[1] = hydrogen gas 280 ml/min for 6 hours per day continued after Abilify and Lexotan Tablet 2 were discontinued

O=C1CCc2ccc(OCCCCN3CCN(c4cccc(Cl)c4Cl)CC3)cc2N1 [Abilify, aripiprazole, reference compound]
symptoms (depressive symptoms, anthropophobia, insomnia) under prescribed medication: not improved

Cc1nnc2n1-c1sc(Br)cc1C(c1ccccc1Cl)=NC2 [Brotizolam Tablet, Brotizolam, reference compound]
symptoms (depressive symptoms, anthropophobia, insomnia) under prescribed medication: not improved

O=C1CN=C(c2ccccn2)c2cc(Br)ccc2N1 [Lexotan Tablet 2, bromazepam, reference compound]
symptoms (depressive symptoms, anthropophobia, insomnia) under prescribed medication: not improved

[HH] [hydrogen gas, hydrogen]
liveliness of voice (hydrogen gas 70 to 140 ml/min aspirated 1 hour once or twice a day over about half a year, medication continued): enhanced
care personnel's evaluation of the patient [1]: being much more cheerful in disposition than before
depressive symptoms [1]: improved to the extent that the patient went outside more frequently than before, and enjoyed a life similar to a healthy person
depressive symptoms (hydrogen gas 280 ml/min for 6 hours per day over about 3 months, Brotizolam discontinued, Abilify and Lexotan continued): improved
improving effect on depressive symptoms versus amount of hydrogen gas aspirated per day (same patient, 70 to 140 ml/min 1 hour once or twice a day versus 280 ml/min 6 hours per day): enhanced as the amount of hydrogen gas aspirated by the patient per day increases

Source: US20200093856A1, “Hydrogen-containing composition for ameliorating depressive symptom” (MiZ Company Limited, priority 2018, published 2020)
